{"source": "patent US10844044B2", "about": "(Vanderbilt University, priority 2018, dated 2020)", "molecular_target": "WDR5 (Homo sapiens (Human), UniProt P61964)", "test": "TR-FRET binding assay (displacement of 10mer-Thr-FAM probe from WDR5)", "key": {"[1]": {"settings": "read-out: Ki for Inhibition of WDR5 by TR-FRET assay, TR-FRET, 10mer-Thr-FAM probe, WDR5-His tag 2 nM, pH 7.0"}, "[2]": {"settings": "read-out: Ki for Inhibition of WDR5 by TR-FRET assay"}}, "note": "Where two headings read alike, the source gives them in different places."}
{"smiles": "COc1cc(-c2cc(Cn3ccn(C)c3=N)cc(C(=O)NCc3ccc(Cl)c(Cl)c3)c2)ccn1", "note": "[Example 24, N-(3,4-Dichlorobenzyl)-3-((2-imino-3-methyl-2,3-dihydro-1H-imidazol-1-yl)methyl)-5-(2-methoxypyridin-4-yl)benzamide]", "values": [{"measurement": "Ki", "setting": "[1]", "value": 25, "unit": "nM"}]}
{"smiles": "Cc1cc([C@@H](NC(=O)c2cc(CN3CCOC3=N)cc(-c3cn(CC(C)C)nc3C(F)(F)F)c2)C2CC2)ccc1F", "note": "[Example 278, (S)—N-(Cyclopropyl(4-fluoro-3-methylphenyl)methyl)-3-((2-iminooxazolidin-3-yl)methyl)-5-(1-isobutyl-3-(trifluoromethyl)-1H-pyrazol-4-yl)benzamide]", "values": [{"measurement": "Ki", "setting": "[1]", "value": 0.34, "unit": "nM"}]}
{"smiles": "Cn1ccn(Cc2cc(C(=O)N[C@H]3CCc4cc(F)ccc43)cc(-c3cccnc3C(F)(F)F)c2)c1=N", "note": "[Example 129, (S)—N-(5-Fluoro-2,3-dihydro-1H-inden-1-yl)-3-((2-imino-3-methyl-2,3-dihydro-1H-imidazol-1-yl)methyl)-5-(2-(trifluoromethyl)pyridin-3-yl)benzamide]", "values": [{"measurement": "Ki", "value": "> 33", "unit": "nM"}]}
{"smiles": "COc1cc(CNC(=O)c2cc(Cn3ccn(C)c3=N)cc(-c3cccnc3C)c2)ccn1", "note": "[Example 41, 3-((2-Imino-3-methyl-2,3-dihydro-1H-imidazol-1-yl)methyl)-N-((2-methoxypyridin-4-yl)methyl)-5-(2-methylpyridin-3-yl)benzamide]", "values": [{"measurement": "Ki", "setting": "[1]", "value": 33, "unit": "nM"}]}
{"smiles": "N=C1SCCN1Cc1cc(C(=O)N[C@H](c2ccc(Cl)c(Cl)c2)C2CC2)cc(-c2cccnc2C(F)(F)F)c1", "note": "[Example 311, (S)—N-(Cyclopropyl(3,4-dichlorophenyl)methyl)-3-((2-iminothiazolidin-3-yl)methyl)-5-(2-(trifluoromethyl)pyridin-3-yl)benzamide]", "values": [{"measurement": "Ki", "setting": "[1]", "value": 1.49, "unit": "nM"}]}
{"smiles": "Cc1cc([C@@H](NC(=O)c2cc(CN3C[C@@H](C)OC3=N)cc(-c3cccnc3C(F)(F)F)c2)C2CC2)ccc1F", "note": "[Example 297, N—((S)-cyclopropyl(4-fluoro-3-methylphenyl)methyl)-3-(((R)-2-imino-5-methyloxazolidin-3-yl)methyl)-5-(2-(trifluoromethyl)pyridin-3-yl)benzamide]", "values": [{"measurement": "Ki", "setting": "[1]", "value": 2.3, "unit": "nM"}]}
{"smiles": "Cn1ccn(Cc2cc(C(=O)N[C@H](c3ccc(Cl)c(Cl)c3)C3CC3)cc(-c3cccnc3C(F)(F)F)c2)c1=N", "note": "[Example 153, (S)—N-(Cyclopropyl(3,4-dichlorophenyl)methyl)-3-((2-imino-3-methyl-2,3-dihydro-1H-imidazol-1-yl)methyl)-5-(2-(trifluoromethyl)pyridin-3-yl)benzamide]", "values": [{"measurement": "Ki", "setting": "[1]", "value": 0.33, "unit": "nM"}]}
{"smiles": "Cc1cc([C@@H](NC(=O)c2cc(Cn3cc(F)ccc3=N)cc(-c3cccnc3C(F)(F)F)c2)C2CC2)ccc1F", "note": "[Example 354, (S)—N-(cyclopropyl(4-fluoro-3-methylphenyl)methyl)-3-((5-fluoro-2-iminopyridin-1(2H)-yl)methyl)-5-(2-(trifluoromethyl)pyridin-3-yl)benzamide]", "values": [{"measurement": "Ki", "setting": "[1]", "value": "< 0.1", "unit": "nM"}]}
{"smiles": "Cc1cc([C@@H](NC(=O)c2cc(Cn3ccn(C)c3=N)cc(-n3ccnc3C)c2)C2CC2)ccc1F", "note": "[Example 224, (S)—N-(Cyclopropyl(4-fluoro-3-methylphenyl)methyl)-3-((2-imino-3-methyl-2,3-dihydro-H-imidazol-1-yl)methyl)-5-(2-methyl-1H-imidazol-1-yl)benzamide]", "values": [{"measurement": "Ki", "setting": "[1]", "value": 0.14, "unit": "nM"}]}
{"smiles": "Cc1cc([C@@H](NC(=O)c2cc(Cn3ccn(C)c3=N)cc(N3CCCC3)c2)C2CC2)ncc1F", "note": "[Example 208, (S)—N-(Cyclopropyl(5-fluoro-4-methylpyridin-2-yl)methyl)-3-((2-imino-3-methyl-2,3-dihydro-1H-imidazol-1-yl)methyl)-5-(pyrrolidin-1-yl)benzamide]", "values": [{"measurement": "Ki", "setting": "[1]", "value": 0.59, "unit": "nM"}]}
{"smiles": "Cc1ccnc([C@@H](NC(=O)c2cc(Cn3ccn(C)c3=N)cc(OC(F)(F)F)c2)C2CC2)c1", "note": "[Example 149, (S)—N-(Cyclopropyl(4-methylpyridin-2-yl)methyl)-3-((2-imino-3-methyl-2,3-dihydro-1H-imidazol-1-yl)methyl)-5-(trifluoromethoxy)benzamide]", "values": [{"measurement": "Ki", "setting": "[1]", "value": 0.56, "unit": "nM"}]}
{"smiles": "Cc1cc([C@@H](NC(=O)c2cc(CN3CCCOC3=N)cc(-c3cccnc3C(F)(F)F)c2)C2CC2)ccc1F", "note": "[Example 362, (S)—N-(Cyclopropyl(4-fluoro-3-methylphenyl)methyl)-3-((2-imino-1,3-oxazinan-3-yl)methyl)-5-(2-(trifluoromethyl)pyridin-3-yl)benzamide]", "values": [{"measurement": "Ki", "setting": "[1]", "value": 0.72, "unit": "nM"}]}
{"smiles": "CCc1coc(=N)n1Cc1cc(C(=O)N[C@H](c2ccc(F)c(C)c2)C2CC2)cc(-c2cccnc2C(F)(F)F)c1", "note": "[Example 256, (S)—N-(Cyclopropyl(4-fluoro-3-methylphenyl)methyl)-3-((4-ethyl-2-iminooxazol-3(2H)-yl)methyl)-5-(2-(trifluoromethyl)pyridin-3-yl)benzamide]", "values": [{"measurement": "Ki", "setting": "[1]", "value": 2.7, "unit": "nM"}]}
{"smiles": "Cc1cc([C@H](C)NC(=O)c2cc(Cn3ccn(C)c3=N)cc(OCC3CC3)c2)ccc1F", "note": "[Example 181, (S)-3-(Cyclopropylmethoxy)-N-(1-(4-fluoro-3-methylphenyl)ethyl)-5-((2-imino-3-methyl-2,3-dihydro-1H-imidazol-1-yl)methyl)benzamide]", "values": [{"measurement": "Ki", "setting": "[1]", "value": 0.35, "unit": "nM"}]}
{"smiles": "CCOc1cc(Cn2ccn(C)c2=N)cc(C(=O)N[C@H](c2ccc(F)c(C)c2)C2CC2)c1", "note": "[Example 180, (S)—N-(Cyclopropyl(4-fluoro-3-methylphenyl)methyl)-3-methoxy-5-((2-imino-3-methyl-2,3-dihydro-1-imidazol-1-yl)methyl)benzamide]", "values": [{"measurement": "Ki", "setting": "[1]", "value": 0.13, "unit": "nM"}]}
{"smiles": "Cc1cc(=O)[nH]cc1-c1cc(Cn2ccn(C)c2=N)cc(C(=O)NCc2ccc(Cl)c(Cl)c2)c1", "note": "[Example 82, N-(3,4-dichlorobenzyl)-3-((2-imino-3-methyl-2,3-dihydro-1H-imidazol-1-yl)methyl)-5-(4-methyl-6-oxo-1,6-dihydropyridin-3-yl)benzamide]", "values": [{"measurement": "Ki", "setting": "[1]", "value": 20, "unit": "nM"}]}
{"smiles": "C[C@H](NC(=O)c1cc(Cn2ccoc2=N)cc(-c2cccnc2C(F)(F)F)c1)c1ccc(C(F)(F)F)cc1", "note": "[Example 258]", "values": [{"measurement": "Ki", "setting": "[2]", "value": 5.8, "unit": "nM"}]}
{"smiles": "COc1cc(CNC(=O)c2cc(Cn3ccn(CC4CC4)c3=N)cc(-c3ccc(F)cc3C)c2)cc(OC)c1", "note": "[Example 134, 5-((3-(Cyclopropylmethyl)-2-imino-2,3-dihydro-1H-imidazol-1-yl)methyl)-N-(3,5-dimethoxybenzyl)-4′-fluoro-2′-methyl-[1,1′-biphenyl]-3-carboxamide]", "values": [{"measurement": "Ki", "setting": "[1]", "value": 38, "unit": "nM"}]}
{"smiles": "COc1cc(OC)cc(C(NC(=O)c2cc(Cn3ccn(C)c3=N)cc(-c3ncnc4c3CCCC4)c2)C2CC2)c1", "note": "(centres unmarked) [Example 96, N-(Cyclopropyl(3,5-dimethoxyphenyl)methyl)-3-((2-imino-3-methyl-2,3-dihydro-1H-imidazol-1-yl)methyl)-5-(5,6,7,8-tetrahydroquinazolin-4-yl)benzamide]", "values": [{"measurement": "Ki", "setting": "[1]", "value": 27, "unit": "nM"}]}
{"smiles": "N=c1occn1Cc1cc(C(=O)N[C@H](c2ccc(Cl)c(Cl)c2)C2CC2)cc(-c2cccnc2C(F)(F)F)c1", "note": "[Example 271, (S)—N-(Cyclopropyl(3,4-dichlorophenyl)methyl)-3-((2-iminooxazol-3(2H)-yl)methyl)-5-(2-(trifluoromethyl)pyridin-3-yl)benzamide]", "values": [{"measurement": "Ki", "setting": "[1]", "value": 0.72, "unit": "nM"}]}
{"smiles": "COc1ncc(C)cc1-c1cc(Cn2ccn(C)c2=N)cc(C(=O)NC(c2cc(C)ccn2)C2CC2)c1", "note": "(centres unmarked) [Example 2, N-(Cyclopropyl(4-methylpyridin-2-yl)methyl)-3-((2-imino-3-methyl-2,3-dihydro-1-imidazol-1-yl)methyl)-5-(2-methoxy-5-methylpyridin-3-yl)benzamide]", "values": [{"measurement": "Ki", "setting": "[1]", "value": "< 0.1", "unit": "nM"}]}
{"smiles": "Cc1cc(F)ccc1-c1cc(Cn2cc[nH]c2=N)cc(C(=O)NCc2ccc(Cl)c(Cl)c2)n1", "note": "[Example 6, N-(3,4-Dichlorobenzyl)-6-(4-fluoro-2-methylphenyl)-4-((2-imino-2,3-dihydro-1H-imidazol-1-yl)methyl)picolinamide]", "values": [{"measurement": "Ki", "setting": "[1]", "value": 24, "unit": "nM"}]}
{"smiles": "Cc1[nH]c(=O)ccc1-c1cc(Cn2ccn(C)c2=N)cc(C(=O)NCc2ccc(Cl)c(Cl)c2)c1", "note": "[Example 112, N-(3,4-Cichlorobenzyl)-3-((2-imino-3-methyl-2,3-dihydro-1-imidazol-1-yl)methyl)-5-(2-methyl-6-oxo-1,6-dihydropyridin-3-yl)benzamide]", "values": [{"measurement": "Ki", "setting": "[1]", "value": 29, "unit": "nM"}]}
{"smiles": "CCn1cc(-c2cc(CN3CCOC3=N)cc(C(=O)NCC3CCOCC3)c2)c(C(F)(F)F)n1", "note": "[Example 288, 3-(1-Ethyl-3-(trifluoromethyl)-1H-pyrazol-4-yl)-5-((2-iminooxazolidin-3-yl)methyl)-N-((tetrahydro-2H-pyran-4-yl)methyl)benzamide]", "values": [{"measurement": "Ki", "setting": "[2]", "value": 8.7, "unit": "nM"}]}
{"smiles": "Cc1cc([C@@H](NC(=O)c2cc(Cn3ccn(C)c3=N)cc(N3CCCC3)c2)C2CC2)ccc1F", "note": "[Example 206, (S)—N-(Cyclopropyl(4-fluoro-3-methylphenyl)methyl)-3-((2-imino-3-methyl-2,3-dihydro-1H-imidazol-1-yl)methyl)-5-(pyrrolidin-1-yl)benzamide]", "values": [{"measurement": "Ki", "setting": "[1]", "value": 0.34, "unit": "nM"}]}
{"smiles": "C[C@H](NC(=O)c1cc(Cn2ccoc2=N)cc(-c2cccnc2C(F)(F)F)c1)c1ncc(F)cn1", "note": "[Example 262, (S)—N-(1-(5-Fluoropyrimidin-2-yl)ethyl)-3-((2-iminooxazol-3(2H)-yl)methyl)-5-(2-(trifluoromethyl)pyridin-3-yl)benzamide]", "values": [{"measurement": "Ki", "setting": "[1]", "value": "> 33", "unit": "nM"}]}
{"smiles": "Cc1cc(CNC(=O)c2cc(Cn3ccn(C)c3=N)cc(-c3ccnn3C)c2)ccc1Cl", "note": "[Example 17, N-(4-Chloro-3-methylbenzyl)-3-((2-imino-3-methyl-2,3-dihydro 1H-imidazol-1-yl)methyl)-5-(1-methyl-1H-pyrazol-5-yl)benzamide]", "values": [{"measurement": "Ki", "setting": "[1]", "value": 0.94, "unit": "nM"}]}
{"smiles": "Cc1cc(CNC(=O)c2cc(Cn3ccn(C)c3=N)cc(-c3ccc(F)cc3C(F)(F)F)n2)ccc1Cl", "note": "[Example 99, N-(4-Chloro-3-methylbenzyl)-6-(4-fluoro-2-(trifluoromethyl)phenyl)-4-((2-imino-3-methyl-2,3-dihydro-1H-imidazol-1-yl)methyl)picolinamide]", "values": [{"measurement": "Ki", "setting": "[1]", "value": 1.1, "unit": "nM"}]}
{"smiles": "Cc1cc([C@@H](NC(=O)c2cc(Cn3cc(F)ccc3=N)cc(-c3cn(C)nc3C(F)(F)F)c2)C2CC2)ccc1F", "note": "[Example 353, (S)—N-(cyclopropyl(4-fluoro-3-methylphenyl)methyl)-3-((5-fluoro-2-iminopyridin-1(2H)-yl)methyl)-5-(1-methyl-3-(trifluoromethyl)-1H-pyrazol-4-yl)benzamide]", "values": [{"measurement": "Ki", "setting": "[2]", "value": "< 0.1", "unit": "nM"}]}
